Converted amounts (≈) assume the structure as drawn.
Legend:
[1] = tested on: SUM1315 human breast cancer cells; assay: Anti-cancer effect: colony formation assay; type: cell-based; conditions: 0.05, 0.1, 0.5, 1, 5, and 10 μM, 10 days
Description: Anti-Cancer Effect: Colony formation assay. The anti-cancer effect of compounds including a bone active portion (RA) derived from an anti-cancer agent was tested. SUM1315 human breast cancer cells (derived from a clinical metastatic nodule) were seeded in 6 well plates at 5000 cells/well in 2 ml of medium. Cells were allowed to adhere overnight prior to drug treatment. Compounds of the presently-disclosed subject matter including a bone active portion (RA) derived from an anti-cancer agent, or the free anti-cancer agent, were added to the cells at concentrations of 0.05, 0.1, 0.5, 1, 5, and 10 μM and cells were allowed to grow at 37° C. for 10 days. In addition, untreated and vehicle (0.1% DMSO) treated wells were included as controls. After 10 days of treatment, medium was removed from each well and cells were subsequently washed with water. Cells were then fixed in 10% formaldehyde for 10 minutes, washed with water and then stained with 0.5% crystal violet for 5 minutes. Colonies of cells were subsequently counted under the microscope in three separate frames. Three independent experiments were performed and the results are an average of the three experiments. Images were obtained from a representative well for each concentration.

[2] = tested on: SUM1315 human breast cancer cells; assay: Anti-cancer effect: cell proliferation (MTT) assay; type: cell-based; conditions: 0.05, 0.1, 0.5, 1, 5, and 10 μM, days 1-6
Source text: Anti-Cancer Effect: Cell Proliferation Assay. The colorometric MTT assay is based on the cleavage of a yellow MTT tetrazolium salt to form purple formazan crystals by the mitochondria of metabolically active and viable cells. The formazan crystals are insoluble in aqueous solution but can be dissolved in acid and quantified using a spectrophotometer. The number of living and viable cells in a sample directly correlates to the amount of purple formazan crystals formed. SUM1315 human breast cancer cells were seeded in triplicate in 96 well plates at 1000 cells/well and were allowed to adhere overnight prior to drug treatment. Compounds of the presently-disclosed subject matter including a bone active portion (RA) derived from an anti-cancer agent, or the free anti-cancer agent, were added to the cells at concentrations of 0.05, 0.1, 0.5, 1, 5, and 10 μM and cells were allowed to grow at 37° C. for 1, 2, 3, 4, 5, or 6 days. In addition, untreated and vehicle (0.1% DMSO) treated wells were included at each time point as controls. Following treatment the MTT assay was subsequently performed and the absorbance at 490 nm was recorded. Three independent experiments were performed and the results were averaged.

[3] = Hydroxyapatite (HA) Binding Assay; conditions: 10^−5 M analyte, 50 mM Tris-HCl pH 7.4, 1% DMSO; adjusted such that tetracycline = 100
Description: A Hydroxyapatite (HA) Binding Assay is used to determine whether compounds have an affinity for bone. Compounds of the presently-disclosed subject matter having a Bone Targeting Portion (RT) are studied using the HA Binding Assay. A 10^−3 M solution of each analyte was made in 100% dimethylsulfoxide (DMSO). A 100 fold dilution was then made to form a 10^−5 M solution in 50 mM Tris-HCl buffer, pH 7.4, 1% DMSO. Tetracycline was used as a reference analyte and approximately 50% was adsorbed to HA at the concentration of 10^−5 M. The HA slurry was 0.5 g/100 mL 50 mM Tris-HCl buffer, 1% DMSO.
For each analyte, two samples were prepared. For one sample, 1 mL of 10^−5 M analyte and 100 μL 50 mM Tris-HCl buffer, 1% DMSO was pipetted into a microcentrifuge tube. For the second sample, 1 mL of 10^−5 M analyte and 100 μL of the HA slurry was pipetted into a microcentrifuge tube. The samples were mixed gently by inversion for 4 minutes and then centrifuged at 12,000 g for 3 minutes to sediment the HA contained in those samples. The supernatant was transferred to another microcentrifuge tube.
An electronic spectral scan (ultraviolet-visible) from 220-520 nm was obtained for each analyte using a Varian Cary 300 Bio Scan. The blank was 50 mM Tris-HCl buffer, 1% DMSO. The wavelength of maximum absorbance (λmax) was determined, and the extinction coefficient (ε) was calculated using the Beer-Lambert Law.
The absorbance of the samples incubated with HA was measured at λmax, and the molar concentration of the analyte was then determined using the Beer-Lambert Law and the previously calculated extinction coefficient. The fraction adsorbed to HA for each sample was subsequently calculated.

[4] = tested on: Staphylococcus aureus ATCC 33591; assay: MIC, broth microdilution, S. aureus ATCC 33591 (MRSA); type: cell-based; conditions: read-out: minimum inhibitory concentration (MIC)
Description: (§1) Antimicrobial Effect: Minimum Inhibitory Concentration (MIC) of a Test Compound Against Isolates of Staphylococcus aureus. The Minimum inhibitory concentration (MIC) of compounds of the presently-disclosed subject matter including a bone active portion (RA) derived from an antimicrobial agent, and free antimicrobial agents, were determined by Ricerca Biosciences LLC (Concord, Ohio) using the standard in vitro broth microdilution assay (CLSI). Two isolates of S. aureus, one resistant to Methicillin (ATCC 33591) and one nonresistant to Methicillin (ATCC 49230) were used for the evaluation. ATCC 49230 is a clinical isolate from a patient with chronic osteomyelitis. Additionally, a quality control isolate (ATCC 29213) was included in the analysis. Briefly, twelve, serial, one-half dilutions of compounds of the presently-disclosed subject matter including a bone active portion (RA) derived from an antimicrobial agent, and free antimicrobial agents, were prepared in 96-well plates in Mueller Hinton Broth (MHB). The highest concentration of each compound used was 64 μg/mL. Bacterial suspensions were prepared and added to each well at a concentration of approximately 5×10^5 colony-forming-units per milliliter. The inoculated plates were incubated for 16-20 h at 35±1° C. At the completion of incubation, the wells of each plate were evaluated visually for the presence of bacterial growth. […]

[5] = tested on: Staphylococcus aureus ATCC 49230; assay: MIC, broth microdilution, S. aureus ATCC 49230; type: cell-based; conditions: ATCC49230, read-out: minimum inhibitory concentration (MIC)
Description: as §1

[6] = tested on: Staphylococcus aureus ATCC 29213; conditions: ATCC 29213, QC strain, acceptance range; cited from earlier work
[7] = tested on: Staphylococcus aureus ATCC 29213; assay: MIC, broth microdilution, S. aureus ATCC 29213 (QC strain); type: cell-based; conditions: ATCC29213, read-out: minimum inhibitory concentration (MIC)
Description: as §1

COc1cccc2c1C(=O)c1c(O)c3c(c(O)c1C2=O)C[C@@](O)(C(=O)CO)C[C@H]3OC1C[C@H](NC(=O)CCCC(=O)NCCOCCOCC(=O)Nc2ccc(OC)c(C(N)=O)c2O)[C@H](O)[C@H](C)O1 (stereo partly shown) [Formula 138]
colony formation [1]: dose-responsive decrease in colony formation | cell proliferation (MTT) [2]: dose-responsive decrease in cell proliferation | Binding Index (binding to hydroxyapatite) [3]: 60

CN[C@H](CC(C)C)C(=O)N[C@H]1C(=O)N[C@@H](CC(N)=O)C(=O)N[C@H]2C(=O)N[C@H]3C(=O)N[C@H](C(=O)N[C@H](C(=O)O)c4cc(O)cc(O)c4-c4cc3ccc4O)[C@H](O)c3ccc(c(Cl)c3)Oc3cc2cc(c3O[C@@H]2O[C@H](CO)[C@@H](O)[C@H](O)[C@H]2O[C@H]2C[C@](C)(N)[C@H](O)[C@H](C)O2)Oc2ccc(cc2Cl)[C@H]1O [vancomycin]
MIC [4]: 1 µg/mL (≈ 0.69 µM) | MIC [5]: 1 µg/mL (≈ 0.69 µM) | acceptable vancomycin MIC range [6]: ^cQC strain: Acceptable vancomycin MIC range: 0.5-2 μg/mL | MIC [7]: 1 µg/mL (≈ 0.69 µM)

Source: patent US8071575B2, “Methods and compounds for the targeted delivery of agents to bone for interaction therewith” (priority 2007, dated 2011)
